Source: ChEMBL document CHEMBL5214957
pEC50, pIC50: −log10 of the molar value.

How the values were obtained:
Assay type in all cases: cell-based
[1] = biological target: T1, Potassium channel subfamily T member 1 (Homo sapiens, UniProt Q5JUK3); experiment: Inhibition of wild-type human Slack expressed in HEK293 cells measured by thallium flux assay
T1 sequence (Q5JUK3 whole entry): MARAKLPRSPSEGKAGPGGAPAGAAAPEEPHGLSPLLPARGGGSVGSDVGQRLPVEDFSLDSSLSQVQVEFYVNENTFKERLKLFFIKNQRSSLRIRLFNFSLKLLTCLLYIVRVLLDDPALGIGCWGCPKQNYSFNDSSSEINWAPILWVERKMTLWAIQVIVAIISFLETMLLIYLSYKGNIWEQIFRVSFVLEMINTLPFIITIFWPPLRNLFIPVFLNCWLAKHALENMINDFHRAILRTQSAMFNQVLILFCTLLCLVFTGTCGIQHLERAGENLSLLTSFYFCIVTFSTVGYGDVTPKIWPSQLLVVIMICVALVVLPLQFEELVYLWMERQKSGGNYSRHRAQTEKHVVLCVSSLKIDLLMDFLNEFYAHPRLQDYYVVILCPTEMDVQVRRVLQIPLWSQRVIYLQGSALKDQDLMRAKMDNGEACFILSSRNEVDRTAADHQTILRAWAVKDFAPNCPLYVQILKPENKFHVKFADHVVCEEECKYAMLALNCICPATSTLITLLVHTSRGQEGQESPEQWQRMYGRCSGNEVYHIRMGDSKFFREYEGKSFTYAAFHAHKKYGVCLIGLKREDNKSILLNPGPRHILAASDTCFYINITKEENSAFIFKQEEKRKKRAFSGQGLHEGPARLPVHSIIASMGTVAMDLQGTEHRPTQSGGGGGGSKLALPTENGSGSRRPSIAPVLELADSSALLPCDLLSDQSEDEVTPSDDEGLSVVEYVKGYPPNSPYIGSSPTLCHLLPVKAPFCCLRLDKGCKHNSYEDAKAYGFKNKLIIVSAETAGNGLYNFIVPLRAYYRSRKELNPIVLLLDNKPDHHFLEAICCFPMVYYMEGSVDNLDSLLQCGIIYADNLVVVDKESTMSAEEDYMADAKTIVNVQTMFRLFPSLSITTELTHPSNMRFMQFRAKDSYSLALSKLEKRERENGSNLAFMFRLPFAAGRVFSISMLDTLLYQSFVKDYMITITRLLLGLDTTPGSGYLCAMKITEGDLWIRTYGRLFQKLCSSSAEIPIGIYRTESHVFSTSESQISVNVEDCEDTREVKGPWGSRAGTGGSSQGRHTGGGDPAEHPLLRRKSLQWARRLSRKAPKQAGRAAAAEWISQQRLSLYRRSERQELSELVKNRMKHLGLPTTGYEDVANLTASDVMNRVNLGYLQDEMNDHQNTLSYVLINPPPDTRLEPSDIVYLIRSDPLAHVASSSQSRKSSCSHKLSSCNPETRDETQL

[2] = biological target: T1, Potassium channel subfamily T member 1; experiment: Activation of wild-type human Slack expressed in HEK293 cells measured by thallium flux assay
[3] = biological target: T2, Potassium channel subfamily T member 2 (Homo sapiens, UniProt Q6UVM3); experiment: Inhibition of Slick (unknown origin) expressed in HEK293 cells measured by thallium flux assay
T2 sequence (Q6UVM3 whole entry): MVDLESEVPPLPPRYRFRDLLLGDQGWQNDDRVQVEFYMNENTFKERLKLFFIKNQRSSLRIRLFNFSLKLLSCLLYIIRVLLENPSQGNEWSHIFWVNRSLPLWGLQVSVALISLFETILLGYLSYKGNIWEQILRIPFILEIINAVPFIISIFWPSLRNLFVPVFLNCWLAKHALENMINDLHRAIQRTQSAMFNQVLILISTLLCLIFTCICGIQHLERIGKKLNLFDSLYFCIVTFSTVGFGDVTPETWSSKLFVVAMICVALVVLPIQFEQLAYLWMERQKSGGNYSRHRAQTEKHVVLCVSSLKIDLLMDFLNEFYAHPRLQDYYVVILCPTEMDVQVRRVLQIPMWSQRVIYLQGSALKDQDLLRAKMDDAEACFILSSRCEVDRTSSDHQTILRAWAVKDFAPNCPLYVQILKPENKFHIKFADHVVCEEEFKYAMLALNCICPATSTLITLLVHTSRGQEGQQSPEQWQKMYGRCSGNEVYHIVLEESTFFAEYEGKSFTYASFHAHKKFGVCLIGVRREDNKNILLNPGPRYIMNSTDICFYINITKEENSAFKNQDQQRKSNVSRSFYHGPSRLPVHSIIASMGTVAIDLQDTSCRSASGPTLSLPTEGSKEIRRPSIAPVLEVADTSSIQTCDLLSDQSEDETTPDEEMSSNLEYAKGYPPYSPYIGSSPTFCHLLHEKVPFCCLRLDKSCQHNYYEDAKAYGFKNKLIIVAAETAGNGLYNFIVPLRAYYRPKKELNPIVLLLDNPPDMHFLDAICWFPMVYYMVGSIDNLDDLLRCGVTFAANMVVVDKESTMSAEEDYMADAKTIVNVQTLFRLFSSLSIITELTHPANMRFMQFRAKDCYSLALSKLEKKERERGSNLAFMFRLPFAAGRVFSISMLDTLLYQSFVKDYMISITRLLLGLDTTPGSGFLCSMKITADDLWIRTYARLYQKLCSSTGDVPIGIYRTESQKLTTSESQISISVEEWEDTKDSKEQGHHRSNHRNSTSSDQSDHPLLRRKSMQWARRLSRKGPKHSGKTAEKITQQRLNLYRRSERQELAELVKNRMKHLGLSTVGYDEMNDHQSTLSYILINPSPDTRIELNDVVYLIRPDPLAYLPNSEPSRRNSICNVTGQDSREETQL

[4] = Inhibition of human Slack A934T mutant expressed in HEK293 cells measured by thallium flux assay
[5] = biological target: T3, Potassium channel subfamily T member 2 (Homo sapiens) (UniProt Q6UVM3); experiment: Inhibition of Slick (unknown origin) expressed in HEK293 cells at 30 uM measured by thallium flux assay relative to control
T3 sequence (whole entry): T2 sequence (Q6UVM3 whole entry)

[6] = biological target: T4, Calcium-activated potassium channel subunit alpha-1 (Homo sapiens, UniProt Q12791); experiment: Inhibition of Maxi-K (unknown origin) expressed in HEK293 cells measured by thallium flux assay
T4 sequence (Q12791 whole entry): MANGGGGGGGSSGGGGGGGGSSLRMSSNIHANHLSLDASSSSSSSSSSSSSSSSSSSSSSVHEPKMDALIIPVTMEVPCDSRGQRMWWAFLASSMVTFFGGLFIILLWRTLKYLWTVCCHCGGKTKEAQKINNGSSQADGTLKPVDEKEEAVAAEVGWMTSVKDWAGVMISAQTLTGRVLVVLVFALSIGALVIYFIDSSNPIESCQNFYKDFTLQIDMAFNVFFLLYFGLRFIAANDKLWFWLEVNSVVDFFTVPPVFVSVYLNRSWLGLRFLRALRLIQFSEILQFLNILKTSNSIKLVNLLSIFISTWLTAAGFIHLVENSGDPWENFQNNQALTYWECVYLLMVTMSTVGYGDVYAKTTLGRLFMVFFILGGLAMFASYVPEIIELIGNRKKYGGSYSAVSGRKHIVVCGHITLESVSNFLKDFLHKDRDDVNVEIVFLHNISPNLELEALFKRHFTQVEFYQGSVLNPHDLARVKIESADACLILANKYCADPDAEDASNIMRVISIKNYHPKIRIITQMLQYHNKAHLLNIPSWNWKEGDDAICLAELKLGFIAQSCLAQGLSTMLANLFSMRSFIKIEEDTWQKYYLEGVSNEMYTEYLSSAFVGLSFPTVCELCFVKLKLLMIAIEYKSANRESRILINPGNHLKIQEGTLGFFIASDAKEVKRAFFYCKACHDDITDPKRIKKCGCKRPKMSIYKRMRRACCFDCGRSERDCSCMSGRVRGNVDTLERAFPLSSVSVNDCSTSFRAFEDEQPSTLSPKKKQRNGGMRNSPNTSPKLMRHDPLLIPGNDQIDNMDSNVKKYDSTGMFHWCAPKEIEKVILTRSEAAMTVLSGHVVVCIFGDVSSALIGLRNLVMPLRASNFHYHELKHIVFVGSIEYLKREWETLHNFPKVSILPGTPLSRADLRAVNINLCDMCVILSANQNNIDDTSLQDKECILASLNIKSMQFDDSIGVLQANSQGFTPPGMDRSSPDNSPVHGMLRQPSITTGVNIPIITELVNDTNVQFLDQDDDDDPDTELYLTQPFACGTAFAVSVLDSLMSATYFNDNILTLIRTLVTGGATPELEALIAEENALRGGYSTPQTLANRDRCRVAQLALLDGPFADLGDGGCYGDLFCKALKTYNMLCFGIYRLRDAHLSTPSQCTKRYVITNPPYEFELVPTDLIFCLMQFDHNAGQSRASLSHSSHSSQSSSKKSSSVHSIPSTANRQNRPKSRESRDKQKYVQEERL

[7] = biological target: T4, Calcium-activated potassium channel subunit alpha-1; experiment: Inhibition of Maxi-K (unknown origin) expressed in HEK293 cells at 30 uM measured by thallium flux assay relative to control
[8] = biological target: T1, Potassium channel subfamily T member 1; experiment: Inhibition of wild-type Slack (unknown origin) expressed in HEK293 cells measured by whole-cell electrophysiology assay
[9] = Inhibition of Slack A934T mutant (unknown origin) expressed in HEK293 cells measured by whole-cell electrophysiology assay; details: Homo sapiens

Cc1ccc(Cl)cc1NC(=O)CN1CCN(S(=O)(=O)N2CCC(C)CC2)CC1
pIC50 [1]: < 5.00

COc1ccc(Cl)cc1NC(=O)CN1CCN(S(=O)(=O)N2CCN(S(=O)(=O)N3CCC(F)(F)C3)CC2)CC1
pEC50 [2]: < 5.00

COc1ccc(Cl)cc1NC(=O)[C@H](C)N1CCN(S(=O)(=O)N2CCC(C(F)(F)F)CC2)CC1
pIC50 [3]: < 5.00

COc1ccc(NC(=O)CN2CCN(S(=O)(=O)N3CCC(C)CC3)CC2)cc1
pEC50 [2]: < 5.00

COc1ccc(Cl)cc1NC(=O)N1CC2(C1)CN(S(=O)(=O)N1CCC(C)CC1)C2
pIC50 [1]: < 5.00

COc1ccc(Cl)cc1NC(=O)CN1CCN(S(=O)(=O)N2CCC(C)CC2)[C@H](C)C1
pIC50 [1]: 4.89

COc1ccc(Cl)cc1NC(=O)CN1CCN(S(=O)(=O)N2CCC(C)CC2)[C@@H](C)C1
pIC50 [1]: < 5.00

COc1ccc(Cl)cc1NC(=O)CN(C)CCN(C)S(=O)(=O)N1CCC(C)CC1
pIC50 [1]: < 5.00

CC1CCN(S(=O)(=O)N2CCN(CC(=O)Nc3cc(Cl)ccc3OC(C)C)CC2)CC1
pIC50 [1]: 5.29

CCOc1ccc(Cl)cc1NC(=O)CN1CCN(S(=O)(=O)N2CCC(C)CC2)CC1
pIC50 [1]: 5.15

COc1ccc(Cl)cc1NC(=O)N1CC2(CCN(S(=O)(=O)N3CCC(C)CC3)CC2)C1
pEC50 [2]: < 5.00

COc1ccc(Cl)cc1NC(=O)N1CCCN(S(=O)(=O)N2CCC(C)CC2)CC1
pIC50 [1]: 5.21

Cc1ccc(NC(=O)CN2CCN(S(=O)(=O)N3CCC(C)CC3)CC2)cc1
pEC50 [2]: 5.39

COc1ccc(Cl)cc1NC(=O)CN1CCN(S(=O)(=O)N2CCC(C)CC2)C[C@H]1C
pIC50 [1]: 5.62
pIC50 [4]: 5.96
pIC50 [3]: < 5.00
Efficacy [5]: 50%
pIC50 [6]: < 5.00
Efficacy [7]: 32%
pIC50 [8]: 5.77
pIC50 [9]: 5.72

COc1ccc(C)cc1NC(=O)CN1CCN(S(=O)(=O)N2CCC(C)CC2)CC1
pIC50 [1]: < 5.00

COc1ccc(Cl)cc1NC(=O)CN1CCN(S(=O)(=O)N2CCC(C)CC2)C[C@@H]1C
pIC50 [1]: 5.46
pIC50 [4]: 5.68

COc1ccccc1NC(=O)CN1CCN(S(=O)(=O)N2CCC(C)CC2)CC1
pIC50 [1]: < 5.00

COc1ccc(Br)cc1NC(=O)CN1CCN(S(=O)(=O)N2CCC(C)CC2)CC1
pIC50 [1]: 5.85

CC1CCN(S(=O)(=O)N2CCN(CC(=O)Nc3cccc(F)c3)CC2)CC1
pEC50 [2]: 5.34

COc1ccc(C(F)(F)F)cc1NC(=O)CN1CCN(S(=O)(=O)N2CCC(C)CC2)CC1
pIC50 [3]: 5.39
pIC50 [6]: < 5.00

CCCOc1ccc(Cl)cc1NC(=O)CN1CCN(S(=O)(=O)N2CCC(C)CC2)CC1
pIC50 [1]: 5.37
pIC50 [4]: 5.51

COc1ccc(Cl)cc1NC(=O)CN1CCN(S(=O)(=O)N2CCC(C)CC2)CC1
pIC50 [1]: 5.62
pIC50 [4]: 5.85
pIC50 [3]: < 5.00
pIC50 [8]: 5.77
pIC50 [9]: 5.80

CCCC1CCN(C(=O)N2CCN(S(=O)(=O)N3CCN(CC(=O)Nc4cc(Cl)ccc4OC)CC3)CC2)CC1
pIC50 [1]: < 5.00

COc1ccc(Cl)cc1NC(=O)CN1CCN(S(=O)(=O)N2CCN(C(=O)N3CCCCCC3)CC2)CC1
pEC50 [2]: < 5.00

CC1CCN(S(=O)(=O)N2CCN(CC(=O)Nc3cc(Cl)ccc3F)CC2)CC1
pEC50 [2]: 5.42

COc1ccc(Cl)cc1NC(=O)CN1CCN(S(=O)(=O)N2CCN(C(=O)N3CCCCC3)CC2)CC1
pEC50 [2]: < 5.00

COc1ccc(F)cc1NC(=O)CN1CCN(S(=O)(=O)N2CCC(C)CC2)CC1
pIC50 [1]: 5.31
pIC50 [4]: 5.64
